Experimental data taken from US11331369B2, “Endoparasitic depsipeptides” (Zoetis Services LLC, priority 2017, dated 2022).

Assays:
Assay type in all cases: cell-based
[1] = tested on: third stage larvae of Haemonchus contortus; assay: Haemonchus contortus L3 (HcL3) Assay; conditions: 96 h, read-out: HcL3 Minimum Effective Dose (MED)
[2] = tested on: 4th stage larvae (L4) of Dirofilaria immitis; assay: Dirofilaria immitis, L4 Stage (DiL4) In Vitro Assay; conditions: Dirofilaria immitis, 72 h, read-out: DiL4 Minimum Effective Dose (MED), approximately 72 hours incubation; L4 larvae assessed for survival or paralysis
[3] = tested on: microfilariae of Dirofilaria immitis; assay: Dirofilaria immitis, Microfilaria (DiMF) In vitro Assay; conditions: 72 h, read-out: DiMF Minimum Effective Dose (MED), approximately 72 hours incubation, microfilariae assessed for survival or paralysis

Compound | minimal effective concentration [1] [µM] | minimal effective concentration [2] [µM] | minimal effective concentration [3] [µM]
CC(C)C[C@H]1C(=O)O[C@H](Cc2ccc(Cn3cc(Br)cn3)cc2)C(=O)N(C)[C@@H](CC(C)C)C(=O)O[C@H](C)C(=O)N(C)[C@@H](CC(C)C)C(=O)O[C@H](Cc2ccc(Cn3cccn3)cc2)C(=O)N(C)[C@@H](CC(C)C)C(=O)O[C@H](C)C(=O)N1C [Example 1a-16, (3S,6R,9S,12R,15S,18R,21S,24R)-6-(4-((1H-pyrazol-1-yl)methyl)benzyl)-18-(4-((4-bromo-1H-pyrazol-1-yl)methyl)benzyl)-3,9,15,21-tetraisobutyl-4,10,12,16,22,24-hexamethyl-1,7,13,19-tetraoxa-4,10,16,22-tetraazacyclotetracosan-2,5,8,11,14,17,20,23-octaone] | 1 to 10 | 0.0001 to 0.001 | 0.001 to 0.01
Cc1cnn(Cc2ccc(C[C@H]3OC(=O)[C@H](CC(C)C)N(C)C(=O)[C@@H](C)OC(=O)[C@H](CC(C)C)N(C)C(=O)[C@@H](Cc4ccc(Cn5cc(I)cn5)cc4)OC(=O)[C@H](CC(C)C)N(C)C(=O)[C@@H](C)OC(=O)[C@H](CC(C)C)N(C)C3=O)cc2)c1 [Example 1a-20, (3S,6R,9S,12R,15S,18R,21S,24R)-6-(4-((4-iodo-1H-pyrazol-1-yl)methyl)benzyl)-3,9,15,21-tetraisobutyl-4,10,12,16,22,24-hexamethyl-18-(4-((4-methyl-1H-pyrazol-1-yl)methyl)benzyl)-1,7,13,19-tetraoxa-4,10,16,22-tetraazacyclotetracosan-2,5,8,11,14,17,20,23-octaone] | 1 to 10 | 0.0001 to 0.001 | 0.001 to 0.01
CC(C)C[C@H]1C(=O)O[C@H](Cc2ccc(Cn3cc(I)cn3)cc2)C(=O)N(C)[C@@H](CC(C)C)C(=O)O[C@H](C)C(=O)N(C)[C@@H](CC(C)C)C(=O)O[C@H](Cc2ccc(Cn3cccn3)cc2)C(=O)N(C)[C@@H](CC(C)C)C(=O)O[C@H](C)C(=O)N1C [Example 1a-21, (3S,6R,9S,12R,15S,18R,21S,24R)-6-(4-((1H-pyrazol-1-yl)methyl)benzyl)-18-(4-((4-iodo-1H-pyrazol-1-yl)methyl)benzyl)-3,9,15,21-tetraisobutyl-4,10,12,16,22,24-hexamethyl-1,7,13,19-tetraoxa-4,10,16,22-tetraazacyclotetracosan-2,5,8,11,14,17,20,23-octaone] | 1 to 10 | 0.0001 to 0.001 | 0.001 to 0.01
CC(C)C[C@H]1C(=O)O[C@H](Cc2ccc(Cn3nccc3C(F)(F)F)cc2)C(=O)N(C)[C@@H](CC(C)C)C(=O)O[C@H](C)C(=O)N(C)[C@@H](CC(C)C)C(=O)O[C@H](Cc2ccc(Cn3ccc(C(F)(F)F)n3)cc2)C(=O)N(C)[C@@H](CC(C)C)C(=O)O[C@H](C)C(=O)N1C [Example 1a-26, (3S,6R,9S,12R,15S,18R,21S,24R)-3,9,15,21-tetraisobutyl-4,6,10,16,18,22-hexamethyl-12-(4-((3-(trifluoromethyl)-1H-pyrazol-1-yl)methyl)benzyl)-24-(4-((5-(trifluoromethyl)-1H-pyrazol-1-yl)methyl)benzyl)-1,7,13,19-tetraoxa-4,10,16,22-tetraazacyclotetracosan-2,5,8,11,14,17,20,23-octaone] | 1 to 10 | 0.0001 to 0.001 | 0.01 to 0.1
CC(C)C[C@H]1C(=O)O[C@H](Cc2ccc(Cn3nccc3Br)cc2)C(=O)N(C)[C@@H](CC(C)C)C(=O)O[C@H](C)C(=O)N(C)[C@@H](CC(C)C)C(=O)O[C@H](Cc2ccc(Cn3ccc(Br)n3)cc2)C(=O)N(C)[C@@H](CC(C)C)C(=O)O[C@H](C)C(=O)N1C [Example 1a-31, (3S,6R,9S,12R,15S,18R,21S,24R)-6-(4-((3-bromo-1H-pyrazol-1-yl)methyl)benzyl)-18-(4-((5-bromo-1H-pyrazol-1-yl)methyl)benzyl)-3,9,15,21-tetraisobutyl-4,10,12,16,22,24-hexamethyl-1,7,13,19-tetraoxa-4,10,16,22-tetraazacyclotetracosan-2,5,8,11,14,17,20,23-octaone] | 1 to 10 | 0.0001 to 0.001 | 0.01 to 0.1
CC(C)C[C@H]1C(=O)O[C@H](Cc2ccc(Cn3cc(Cl)cn3)cc2)C(=O)N(C)[C@@H](CC(C)C)C(=O)O[C@H](C)C(=O)N(C)[C@@H](CC(C)C)C(=O)O[C@H](Cc2ccc(Cn3cc(Cl)cn3)cc2)C(=O)N(C)[C@@H](CC(C)C)C(=O)O[C@H](C)C(=O)N1C [Example 1b-35, (3S,6R,9S,12R,15S,18R,21S,24R)-6,18-bis(4-((4-chloro-1H-pyrazol-1-yl)methyl)benzyl)-3,9,15,21-tetraisobutyl-4,10,12,16,22,24-hexamethyl-1,7,13,19-tetraoxa-4,10,16,22-tetraazacyclotetracosan-2,5,8,11,14,17,20,23-octaone] | 10 to 100 | 0.0001 to 0.001 | 0.001 to 0.01
CC(C)C[C@H]1C(=O)O[C@H](Cc2ccc(Cn3cc(I)cn3)cc2)C(=O)N(C)[C@@H](CC(C)C)C(=O)O[C@H](C)C(=O)N(C)[C@@H](CC(C)C)C(=O)O[C@H](Cc2ccc(Cn3cc(I)cn3)cc2)C(=O)N(C)[C@@H](CC(C)C)C(=O)O[C@H](C)C(=O)N1C [Example 1b-46, (3S,6R,9S,12R,15S,18R,21S,24R)-6,18-bis(4-((4-iodo-1H-pyrazol-1-yl)methyl)benzyl)-3,9,15,21-tetraisobutyl-4,10,12,16,22,24-hexamethyl-1,7,13,19-tetraoxa-4,10,16,22-tetraazacyclotetracosan-2,5,8,11,14,17,20,23-octaone] | 1 to 10 | 0.0001 to 0.001 | 0.001 to 0.01
CC(C)C[C@H]1C(=O)O[C@H](Cc2ccc(Cn3nc(C(F)F)cc3C(F)F)cc2)C(=O)N(C)[C@@H](CC(C)C)C(=O)O[C@H](C)C(=O)N(C)[C@@H](CC(C)C)C(=O)O[C@H](Cc2ccc(Cn3nc(C(F)F)cc3C(F)F)cc2)C(=O)N(C)[C@@H](CC(C)C)C(=O)O[C@H](C)C(=O)N1C [Example 1b-89, (3S,6R,9S,12R,15S,18R,21S,24R)-6,18-bis(4-((3,5-bis(difluoromethyl)-1H-pyrazol-1-yl)methyl)benzyl)-3,9,15,21-tetraisobutyl-4,10,12,16,22,24-hexamethyl-1,7,13,19-tetraoxa-4,10,16,22-tetraazacyclotetracosan-2,5,8,11,14,17,20,23-octaone] | ≤ 1 | ≤ 0.0001 | 0.001 to 0.01
CC#Cc1cnn(Cc2ccc(C[C@H]3OC(=O)[C@H](CC(C)C)N(C)C(=O)[C@@H](C)OC(=O)[C@H](CC(C)C)N(C)C(=O)[C@@H](Cc4ccc(Cn5cc(C#CC)cn5)cc4)OC(=O)[C@H](CC(C)C)N(C)C(=O)[C@@H](C)OC(=O)[C@H](CC(C)C)N(C)C3=O)cc2)c1 [Example 1b-118, (3S,6R,9S,12R,15S,18R,21S,24R)-3,9,15,21-tetraisobutyl-4,6,10,16,18,22-hexamethyl-12,24-bis(4-((4-(prop-1-yn-1-yl)-1H-pyrazol-1-yl)methyl)benzyl)-1,7,13,19-tetraoxa-4,10,16,22-tetraazacyclotetracosan-2,5,8,11,14,17,20,23-octaone] | 1 to 10 | 0.0001 to 0.001 | 0.001 to 0.01
CCC#Cc1cnn(Cc2ccc(C[C@H]3OC(=O)[C@H](CC(C)C)N(C)C(=O)[C@@H](C)OC(=O)[C@H](CC(C)C)N(C)C(=O)[C@@H](Cc4ccc(Cn5cc(C#CCC)cn5)cc4)OC(=O)[C@H](CC(C)C)N(C)C(=O)[C@@H](C)OC(=O)[C@H](CC(C)C)N(C)C3=O)cc2)c1 [Example 1b-119, (3S,6R,9S,12R,15S,18R,21S,24R)-6,18-bis(4-((4-(but-1-yn-1-yl)-1H-pyrazol-1-yl)methyl)benzyl)-3,9,15,21-tetraisobutyl-4,10,12,16,22,24-hexamethyl-1,7,13,19-tetraoxa-4,10,16,22-tetraazacyclotetracosan-2,5,8,11,14,17,20,23-octaone] | 10 to 100 | ≤ 0.0001 | 0.001 to 0.01
CC(C)C[C@H]1C(=O)O[C@H](Cc2ccc(Cn3nccc3C(C)C)cc2)C(=O)N(C)[C@@H](CC(C)C)C(=O)O[C@H](C)C(=O)N(C)[C@@H](CC(C)C)C(=O)O[C@H](Cc2ccc(Cn3nccc3C(C)C)cc2)C(=O)N(C)[C@@H](CC(C)C)C(=O)O[C@H](C)C(=O)N1C [Example 1b-126, (3S,6R,9S,12R,15S,18R,21S,24R)-3,9,15,21-tetraisobutyl-6,18-bis(4-((5-isopropyl-1H-pyrazol-1-yl)methyl)benzyl)-4,10,12,16,22,24-hexamethyl-1,7,13,19-tetraoxa-4,10,16,22-tetraazacyclotetracosan-2,5,8,11,14,17,20,23-octaone] | 1 to 10 | 0.0001 to 0.001 | 0.001 to 0.01
CC(C)C[C@H]1C(=O)O[C@H](Cc2ccc(Cn3nccc3C(C)(C)C)cc2)C(=O)N(C)[C@@H](CC(C)C)C(=O)O[C@H](C)C(=O)N(C)[C@@H](CC(C)C)C(=O)O[C@H](Cc2ccc(Cn3nccc3C(C)(C)C)cc2)C(=O)N(C)[C@@H](CC(C)C)C(=O)O[C@H](C)C(=O)N1C [Example 1b-127, (3S,6R,9S,12R,15S,18R,21S,24R)-6,18-bis(4-((5-(tert-butyl)-1H-pyrazol-1-yl)methyl)benzyl)-3,9,15,21-tetraisobutyl-4,10,12,16,22,24-hexamethyl-1,7,13,19-tetraoxa-4,10,16,22-tetraazacyclotetracosan-2,5,8,11,14,17,20,23-octaone] | 1 to 10 | 0.001 to 0.01 | 0.01 to 0.1
